From PubChem BioAssay AID248 (DTP/NCI, 2004)
Where “and” joins values, the source holds several entries; their conditions need not be identical. Identical values can stand only once. Inconclusive results and toxic doses are left out. No stated cut-off is given here; in the data, active means T/C of 150% or more; inactive means T/C below 125%.

Test system: L1210 leukemia ip in BDF1 mice, survival T/C
Test: NCI In Vivo Anticancer Drug Screen. Data for tumor model L1210 Leukemia (intraperitoneal) in B6D2F1 (BDF1) mice
Settings: endpoint: mean survival time, higher = longer survival
How it was run: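 Tumor was transplanted into mice, which were then dosed with test compound or vehicle alone. Survival was recorded for each group, and the treated figure was expressed relative to the control figure.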

[1] = dose: 100.0 mg/kg/injection, schedule: Q01DX009 (ip), vehicle: Klucel (hydroxypropylcellulose) (HPC)
[2] = dose: 100.0 mg/kg/injection, schedule: Q04DX003 (ip), vehicle: Klucel (hydroxypropylcellulose) (HPC)
[3] = dose: 200.0 mg/kg/injection, schedule: Q01DX009 (ip), vehicle: Klucel (hydroxypropylcellulose) (HPC)
[4] = dose: 200.0 mg/kg/injection, schedule: Q04DX003 (ip), vehicle: Klucel (hydroxypropylcellulose) (HPC)
[5] = dose: 400.0 mg/kg/injection, schedule: Q04DX003 (ip), vehicle: Klucel (hydroxypropylcellulose) (HPC)
[6] = dose: 100.0 mg/kg/injection, schedule: Q01DX009 (ip), vehicle: saline
[7] = dose: 200.0 mg/kg/injection, schedule: Q01DX009 (ip), vehicle: saline

Measured: T/C

O=P(NCCCl)(Nc1ccccc1)Nc1ccccc1
inactive: dose: 50.0 mg/kg/injection, schedule: Q01DX009 (ip), vehicle: Klucel (hydroxypropylcellulose) (HPC) 112 % of control | [1] 108 % of control | [2] 90 % of control | [3] 108 % of control

O=C(Nc1ccccc1NC(=O)C(Cl)(Cl)Cl)C(Cl)(Cl)Cl
inactive: dose: 87.5 mg/kg/injection, schedule: Q01DX009 (ip), vehicle: carboxymethylcellulose (CMC) 88 % of control | dose: 175.0 mg/kg/injection, schedule: Q01DX009 (ip), vehicle: carboxymethylcellulose (CMC) 93 % of control | dose: 350.0 mg/kg/injection, schedule: Q01DX009 (ip), vehicle: carboxymethylcellulose (CMC) 96 % of control

CC(C(=O)O)(c1ccccc1)c1ccccc1
inactive: dose: 100.0 mg/kg/injection, schedule: Q04DX002 (ip), vehicle: gum acacia 101 % of control | dose: 200.0 mg/kg/injection, schedule: Q04DX002 (ip), vehicle: gum acacia 96 % of control | dose: 400.0 mg/kg/injection, schedule: Q04DX002 (ip), vehicle: gum acacia 96 % of control

C=CCc1c(C)ccc(C)c1OC
inactive: [1] 97 % of control | [2] 107 % of control | [3] 95 % of control | [4] 102 % of control | dose: 400.0 mg/kg/injection, schedule: Q01DX009 (ip), vehicle: Klucel (hydroxypropylcellulose) (HPC) 97 % of control | [5] 102 % of control

Clc1nc(Nc2ccccc2)nc(Nc2ccccc2)n1
inactive: [2] 96 % of control | [4] 93 % of control | [5] 95 % of control

CC(=O)[S][Pb]([c]1ccccc1)([c]1ccccc1)[c]1ccccc1
inactive: dose: 1.0 mg/kg/injection, schedule: Q01DX009 (ip), vehicle: saline 93 % of control | dose: 2.0 mg/kg/injection, schedule: Q01DX009 (ip), vehicle: saline 93 % of control | dose: 4.0 mg/kg/injection, schedule: Q01DX009 (ip), vehicle: saline 95 % of control and 100 % of control | dose: 5.9 mg/kg/injection, schedule: Q01DX009 (ip), vehicle: saline 86 % of control

COCCOCCOCCOCCOCCN
inactive: [6] 96 % of control | [7] 93 % of control | dose: 400.0 mg/kg/injection, schedule: Q01DX009 (ip), vehicle: saline 98 % of control

CCCCN1C(=O)C2C3CCC(O3)C2C1=O (stereo unspecified)
inactive: dose: 100.0 mg/kg/injection, schedule: Q04DX002 (ip), vehicle: Klucel (hydroxypropylcellulose) (HPC) 98 % of control | dose: 200.0 mg/kg/injection, schedule: Q04DX002 (ip), vehicle: Klucel (hydroxypropylcellulose) (HPC) 103 % of control

Cc1cccc(C(=O)NCC(=O)O)c1
inactive: dose: 50.0 mg/kg/injection, schedule: Q01DX009 (ip), vehicle: saline 98 % of control | [6] 94 % of control | dose: 100.0 mg/kg/injection, schedule: Q04DX002 (ip), vehicle: saline with Tween-80 99 % of control | [7] 91 % of control | dose: 200.0 mg/kg/injection, schedule: Q04DX002 (ip), vehicle: saline with Tween-80 96 % of control

Cc1ccc([N+](=O)[O-])cc1N=Nc1ccc(O)c(C(=O)O)c1
inactive: dose: 25.0 mg/kg/injection, schedule: Q04DX003 (ip), vehicle: Klucel (hydroxypropylcellulose) (HPC) 93 % of control | dose: 50.0 mg/kg/injection, schedule: Q04DX003 (ip), vehicle: Klucel (hydroxypropylcellulose) (HPC) 96 % of control | [2] 96 % of control and 88 % of control

COC(=O)CCc1nc(N)nc(N)n1
inactive: dose: 50.0 mg/kg/injection, schedule: Q01DX001 (ip), vehicle: carboxymethylcellulose (CMC) 98 % of control | dose: 100.0 mg/kg/injection, schedule: Q01DX001 (ip), vehicle: carboxymethylcellulose (CMC) 90 % of control | dose: 200.0 mg/kg/injection, schedule: Q01DX001 (ip), vehicle: carboxymethylcellulose (CMC) 101 % of control | dose: 400.0 mg/kg/injection, schedule: Q01DX001 (ip), vehicle: carboxymethylcellulose (CMC) 90 % of control

Clc1ccc(C(c2cccs2)N2CCNCC2)cc1 (stereo unspecified)
inactive: dose: 25.0 mg/kg/injection, schedule: Q01DX009 (ip), vehicle: saline with Tween-80 96 % of control | dose: 50.0 mg/kg/injection, schedule: Q01DX009 (ip), vehicle: saline with Tween-80 90 % of control | dose: 100.0 mg/kg/injection, schedule: Q04DX003 (ip), vehicle: saline with Tween-80 98 % of control

CC(=O)OC1CCC2(C)C(CCC3(C)C2CC=C2C4=C(CCC(C)(C)C4=O)CCC23C)C1(C)C (stereo unspecified)
inactive: dose: 100.0 mg/kg/injection, schedule: Q04DX003 (ip), vehicle: saline 102 % of control | dose: 200.0 mg/kg/injection, schedule: Q04DX003 (ip), vehicle: saline 100 % of control | dose: 400.0 mg/kg/injection, schedule: Q04DX003 (ip), vehicle: saline 92 % of control
